Results published in patent US20250326794A1, “ANTI-CANCER LEUCINE-RICH PEPTIDES AND USES THEREOF” (KING'S COLLEGE LONDON, priority 2019, published 2025).

Columns and labels:
[1] = ANTS/DPX liposome leakage assay, 3POPC/1POPG vesicles; type: biochemical; conditions: 0.5 mM vesicles; for Peptide Concentration-induced 50% ANTS/DPX leakage at pH 4.8, 3POPC/1POPG Vesicle: pH 4.8, lipid per peptide; for Peptide Concentration-induced 50% ANTS/DPX leakage at pH 7.4, 3POPC/1POPG Vesicle: pH 7.4, lipid per peptide
Experimental: (§1) In brief, 0.5 mM POPC vesicles (grey) or POPC:POPG vesicles (ratio 3:1, black) were incubated with peptide concentrations of 0, 0.02, 0.04, 0.08, 0.16, 0.32, 0.64, 1.25, 2.5, 5, 10, and 20 μM in each A) hydrochloric acid-adjusted phosphate buffered saline (1×, pH 4.8) and B) phosphate buffered saline (1×, pH 7.4).
(§2) The lipids 1-palmitoyl-2-oleoyl-sn-glycero-3-phosphocholine (POPC), 1-palmitoyl-2-oleoyl-snglycero-3-phospho-(1′-rac-glycerol) (POPG) were purchased from Avanti Polar Lipids and dissolved in chloroform. Large unilamellar vesicles (LUVs) were produced by extrusion through 100 nm pore filter using an extruder and filters purchased from Avanti Polar Lipids.
(§3) 5 mM ANTS (8-aminonaphthalene-1,3,6-trisulfonic acid, disodium salt) and 12.5 mM DPX (p-xylene-bis-pyridinium bromide) were entrapped in 0.1 μm diameter extruded vesicles with lipids. Gel filtration chromatography using a Sephadex G-100 (GE Healthcare Life Sciences Inc) was used to remove external free ANTS/DPX from LUVs with entrapped contents. LUVs were diluted to 0.5 mM and used to measure the leakage activity by addition of aliquots of peptides. Leakage was measured after 3 h incubation. 10% Triton was used as the positive control to measure the maximum leakage of the vesicle. Fluorescence emission spectra were recorded using excitation and emission wavelength of 350 nm and 510 nm for ANTS/DPX using a BioTek Synergy H1 Hybrid Multi-Mode Reader.
(§4) Table 4 illustrates peptide concentration-induced 50% ANTS/DPX liposome leakage. 0.5 mM POPC and 3POPC/1POPG vesicles were fixed and incubated with titrated peptide concentration ([…]) each in phosphate buffered saline (1×, pH 7.4) and hydrochloric acid-adjusted phosphate buffered saline (1×, pH 4.8). The values are shown as lipid per peptide. †N-terminus is free, C-terminus: —W—NH2.

[2] = tested on: HMLER (human breast cancer bulk cell); assay: cells; conditions: 72 h
From the text: (§5) HMLER (human mammary endothelial cancer cells), HMLER-shEcad (human mammary endothelial cancer stem cells), and MCF-10A (healthy human mammary endothelial) cells were maintained in Mammary Epithelial Cell Growth Medium (MEGM) with supplements and growth factors: bovine pituitary extract (BPE), hydrocortisone, human epidermal growth factor (hEGF), insulin, and gentamicin/amphotericin-B. HEK293T (human embryonic kidney cell), and U2OS (Homo sapiens bone osteosarcoma) cells were maintained in Dulbecco's Modified Eagle's Medium (DMEM) with a final concentration of 10% fetal bovine serum. The cells were grown in T75 flask at 310 K in a humidified atmosphere containing 5% CO2.
(§6) The colourimetric MTT (3-(4,5-dimethylthiazol-2-yl)-2,5-diphenyltetrazolium bromide) assay was used to determine the toxicity of the anticancer peptides and conventional anticancer drugs. 5×10^3 cells were seeded in each well of a 96-well microplate. The cells were incubated overnight. Elevated concentrations of the compounds (0, 0.1, 0.2, 0.4, 0.8, 1.6, 3.1, 6.3, 12.5, 25, 50 and 100 μM) were added and incubated for 72 hr with a total volume 200 μL. The stock solutions of the compounds were prepared as 5 mM solutions in DMSO and diluted using media or in pure water. The final concentration of DMSO in each well was either 0.5% or 0% and this amount was present in the untreated control. After 72 hr, 20 μL of a 4 mg/mL solution of MTT in PBS was added to each well, and the plate was incubated for an additional 4 hr. The MEGM/MTT mixture was aspirated and 100 μL of DMSO was added to dissolve the resulting purple formazan crystals. The absorbance of the solutions in each well was read at 550 nm wavelength. Absorbance values were normalized to either DMSO-containing or non DMSO-containing control wells and plotted as concentration of test compound versus % cell viability. IC50 values were interpolated from the resulting dose dependent curves.
(§7) The peptides were screened against several different human cell lines and their cytotoxicity were determined. Cell lines utilised include MCF-10A (human breast epithelial cell), HMLER (human breast cancer bulk cell), HMLER-shEcad (human breast cancer stem cell), HEK293T (human embryonic kidney cell), and U2OS (human bone osteosarcoma).

[3] = tested on: HMLER-shEcad (human breast cancer stem cell); assay: cells; conditions: 72 h
From the text: as §5, §6, §7

[4] = tested on: HEK293T (human embryonic kidney cell); assay: cells; conditions: 72 h
From the text: as §5, §6, §7

[5] = Tryptophan fluorescent binding assay, 3POPC/1POPG vesicles; conditions: 50 μM peptide, PBS pH 7.4, lipid per peptide
Experimental: (§8) In brief, 50 μM peptides were fixed and incubated with titrated POPC vesicles (black) or 3POPC/1POPG vesicles (grey) at concentrations of 0, 12.5, 25, 50, 100, 250, 500, 1000, 2500, and 5000 μM in phosphate buffered saline (1×, pH 7.4). The lipid concentration that causes 50% peptide binding was determined using a tryptophan fluorescent binding assay and the values are shown as lipid per peptide.
as §2
(§9) Peptides (50 μM) and POPC/POPG LUVs (600 μM) were prepared in 10 mM phosphate buffer (pH 7.0). The solutions were incubated and measured after 60 minutes. Excitation was fixed at 280 nm (slit 9 nm) and emission was collected from 300 to 450 nm (slit 9 nm). The spectra were recorded using a Synergy H1 Hybrid Multi-Mode Reader (FIG. 3A) and Cytation™ 5 Cell Imaging Multi-Mode Reader (FIG. 2) from BioTek and were averaged over 3 scans.
(§10) Table 3 illustrates the lipid concentration-induced 50% peptide binding onto a liposome. 50 μM peptide was fixed and incubated with titrated lipid (POPC vesicles or 3POPC/1POPG vesicles) at concentrations of 0, 12.5, 25, 50, 100, 250, 500, 1000, 2500, and 5000 μM in phosphate buffered saline (1×, pH 7.4). The lipid concentration that causes 50% peptide binding was determined using tryptophan fluorescent binding assay and the values are shown as lipid per peptide. †N-terminus is free, C-terminus: —W—NH2.

[6] = ANTS/DPX liposome leakage assay, POPC vesicles; type: biochemical; conditions: 0.5 mM vesicles; for Peptide Concentration-induced 50% ANTS/DPX leakage at pH 4.8, POPC Vesicle: pH 4.8, lipid per peptide; for Peptide Concentration-induced 50% ANTS/DPX leakage at pH 7.4, POPC Vesicle: pH 7.4, lipid per peptide
Experimental: as §1, §2, §3, §4

[7] = Tryptophan fluorescent binding assay, POPC vesicles; conditions: 50 μM peptide, PBS pH 7.4, lipid per peptide
Experimental: as §8, §2, §9, §10

[8] = tested on: U2OS (human bone osteosarcoma); conditions: 72 h
From the text: as §5, §6, §7

Row | SMILES | Peptide Concentration-induced 50% ANTS/DPX leakage at pH 4.8, 3POPC/1POPG Vesicle [1] | Peptide Concentration-induced 50% ANTS/DPX leakage at pH 7.4, 3POPC/1POPG Vesicle [1] | IC50 [2] | IC50 [3] | IC50 [4] | Lipid Concentration-induced 50% Peptide Binding, 3POPC/1POPG Vesicle [5] | Peptide Concentration-induced 50% ANTS/DPX leakage at pH 4.8, POPC Vesicle [6] | Peptide Concentration-induced 50% ANTS/DPX leakage at pH 7.4, POPC Vesicle [6] | Lipid Concentration-induced 50% Peptide Binding, POPC Vesicle [7] | IC50 [8]
1 | CC(C)C[C@H](NC(=O)CN)C(=O)N[C@@H](CC(C)C)C(=O)N[C@@H](CCC(=O)O)C(=O)N[C@@H](CC(C)C)C(=O)N[C@@H](CC(C)C)C(=O)N[C@@H](Cc1c[nH]cn1)C(=O)N[C@@H](CC(C)C)C(=O)N[C@@H](CC(C)C)C(=O)N[C@@H](CC(C)C)C(=O)N[C@@H](Cc1c[nH]cn1)C(=O)N[C@@H](C)C(=O)N[C@@H](C)C(=O)NCC(=O)N[C@@H](Cc1c[nH]c2ccccc12)C(N)=O [EHH] | 80 L/P | 981 L/P | 25.4 ± 2.76 µM | 16.1 ± 3.18 µM | 5.9 ± 0.14 µM | 0.69 L/P | 386 L/P | 1043 L/P | 0.94 L/P | 117 ± 7 µM
2 | CC(C)C[C@H](NC(=O)CN)C(=O)N[C@@H](CC(C)C)C(=O)N[C@@H](CCCCN)C(=O)N[C@@H](CC(C)C)C(=O)N[C@@H](CC(C)C)C(=O)N[C@@H](Cc1c[nH]cn1)C(=O)N[C@@H](CC(C)C)C(=O)N[C@@H](CC(C)C)C(=O)N[C@@H](CC(C)C)C(=O)N[C@@H](Cc1c[nH]cn1)C(=O)N[C@@H](C)C(=O)N[C@@H](C)C(=O)NCC(=O)N[C@@H](Cc1c[nH]c2ccccc12)C(N)=O [KHH] | 48 L/P | 329 L/P | 5.2 ± 0.71 µM | 4.45 ± 0.49 µM | 7.75 ± 0.78 µM | 0.94 L/P | 227 L/P | 1153 L/P | 3.50 L/P | 39.8 ± 5.3 µM
3 | CC(C)C[C@H](NC(=O)CN)C(=O)N[C@@H](CC(C)C)C(=O)N[C@@H](CC(=O)O)C(=O)N[C@@H](CC(C)C)C(=O)N[C@@H](CC(C)C)C(=O)N[C@@H](CCC(=O)O)C(=O)N[C@@H](CC(C)C)C(=O)N[C@@H](CC(C)C)C(=O)N[C@@H](CC(C)C)C(=O)N[C@@H](Cc1c[nH]cn1)C(=O)N[C@@H](C)C(=O)N[C@@H](C)C(=O)NCC(=O)N[C@@H](Cc1c[nH]c2ccccc12)C(N)=O [DEH] | 193 L/P | 548 L/P | 5.35 ± 1.91 µM | 3.6 ± 0.42 µM | 10.5 ± 4.67 µM | 1.50 L/P | 63 L/P | 620 L/P | 0.75 L/P | 36.5 ± 3.92 µM
